Measurements: ChEMBL document CHEMBL3137667, “[Drug-induced liver injury; fourteenth updated edition of the bibliographic database of liver injuries and related drugs]” (Gastroenterol Clin Biol, 2004)

Experiments:
[1] = Highest frequency of moderate liver toxicity observed during clinical trials, expressed as a percentage. [column '% BIOL' in source]; settings: human
[2] = Highest frequency of acute liver toxicity observed during clinical trials, expressed as a percentage. [column '% AIGUE' in source]; settings: human
[3] = Times to onset, minimal and maximal, observed in the indexed observations. [column 'DELAI' in source]; settings: human
[4] = human, serum
[5] = human, serum; remark: listed apart in the source
[6] = human
[7] = human; remark: listed apart in the source
[8] = human; remark: listed apart in the source
[9] = human, serum, 4383 h
[10] = human; remark: listed apart in the source
[11] = human; remark: listed apart in the source
[12] = human; remark: listed apart in the source
[13] = human; remark: listed apart in the source
[14] = human; remark: listed apart in the source
[15] = human; remark: listed apart in the source
[16] = human; remark: listed apart in the source
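For Hepatotoxicity (association with vascular disease) in this document: count of indexed literature references reporting vascular liver injury in humans, e.g. peliosis hepatitis, hepatic veno-occlusive disease or Budd-Chiari syndrome.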
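For Hepatotoxicity (benign tumour) in this document: value is a count of indexed literature references citing a benign tumour confirmed by histopathology.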
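For Hepatotoxicity (choleostasis) in this document: human cholestatic liver injury, shown by histopathology or by peak ALT or AST elevation over alkaline phosphatase ratio below 2, value counts indexed literature reports.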
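For Hepatotoxicity (chronic liver disease) in this document: chronic liver injury confirmed by histopathology or persistently raised serum aminotransferase activity beyond 6 months, value given as the count of indexed literature references.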
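For Hepatotoxicity (cirrhosis) in this document: value is a count of indexed literature references reporting cirrhosis confirmed by histopathology.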
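For Hepatotoxicity (cytolytic) in this document: human cytolytic liver injury, shown by histopathology or by a ratio above 5 of peak ALT or AST elevation to alkaline phosphatase elevation, value counts indexed references.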
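For Hepatotoxicity (granulomatous hepatitis) in this document: value is a count of indexed literature references reporting granulomatous liver disease confirmed by histopathology.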
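For Hepatotoxicity (malignant tumour) in this document: malignant tumour confirmed by histopathology, value gives the count of indexed literature references reporting it.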
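For Hepatotoxicity (severe hepatitis) in this document: human clinical data: severe hepatitis, meaning potentially life-threatening liver failure or clinically observed cases, the value counts how many indexed literature references report it.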
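For Hepatotoxicity (steatosis) in this document: steatosis confirmed by histopathology, value is the count of indexed references.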

| Molecule | Hepatotoxicity (moderate) [4] | Hepatotoxicity (acute) [5] | Hepatotoxicity (chronic liver disease) [9] | Hepatotoxicity (cirrhosis) [10] | Hepatotoxicity (association with vascular disease) [12] | Hepatotoxicity (steatosis) [13] | Hepatotoxicity (malignant tumour) [14] | Hepatotoxicity (benign tumour) [15] | Hepatotoxicity (animal toxicity known) [16] | Hepatotoxicity (moderate) [1] [%] | Hepatotoxicity (acute) [2] [%] | Hepatotoxicity (cytolytic) [6] | Hepatotoxicity (choleostasis) [7] | Hepatotoxicity (severe hepatitis) [8] | Hepatotoxicity (granulomatous hepatitis) [11] | other results |
| --- | --- | --- | --- | --- | --- | --- | --- | --- | --- | --- | --- | --- | --- | --- | --- | --- |
| Cl[C@H]1[C@H](Cl)[C@@H](Cl)[C@@H](Cl)[C@H](Cl)[C@H]1Cl [LINDANE] | 0 | 2 | 0 | 0 | 0 | 0 | 0 | 0 | yes |  |  |  |  |  |  | Hepatotoxicity (moderate) ([1]; Liver): 0%; Hepatotoxicity (acute) ([2]; Liver): 0%; Hepatotoxicity (time to onset) [3]: 3 weeks; Hepatotoxicity (cytolytic) ([6]; Liver): 1; Hepatotoxicity (choleostasis) ([7]; Liver): 0; Hepatotoxicity (severe hepatitis) ([8]; Liver): 0; Hepatotoxicity (granulomatous hepatitis) ([11]; Liver): 0 |
| NC[C@@H]1CC[C@@H](N)[C@@H](O[C@H]2[C@H](O)[C@@H](O[C@H]3O[C@H](CO)[C@@H](O)[C@H](N)[C@H]3O)[C@H](N)C[C@@H]2N)O1 [DIBEKACIN] | 1 | 0 | 0 | 0 | 0 | 0 | 0 | 0 | yes | 13.7 | 0 | 0 | 0 | 0 | 0 |  |
| CCCC1C(=O)N2C(N(C)C)=Nc3ccc(C)cc3N2C1=O (stereo not given) [APAZONE] | 1 |  | 0 | 0 | 0 | 0 | 0 | 0 | yes | 0 |  | 0 | 1 | 0 | 1 | Hepatotoxicity (time to onset) [3]: 3 weeks |
| O=C1Nc2ccc(Cl)cc2C(c2ccccc2)=NC1O (stereo not given) [OXAZEPAM] | 0 | 0 | 0 | 0 | 1 | 0 | 0 | 0 | yes |  |  |  |  |  |  | Hepatotoxicity (moderate) ([1]; Liver): 0%; Hepatotoxicity (acute) ([2]; Liver): 0%; Hepatotoxicity (cytolytic) ([6]; Liver): 0; Hepatotoxicity (choleostasis) ([7]; Liver): 0; Hepatotoxicity (severe hepatitis) ([8]; Liver): 0; Hepatotoxicity (granulomatous hepatitis) ([11]; Liver): 0 |
| Cc1[nH]cnc1CSCCNc1ncc(Cc2ccc3c(c2)OCO3)c(=O)[nH]1 [OXMETIDINE] | 1 | 1 | 0 | 0 | 0 | 0 | 0 | 0 | yes | 0 | 0.1 | 0 | 0 | 0 | 0 |  |
| POVIDONE-IODINE | 2 | 2 | 0 | 0 | 0 | 0 | 0 | 0 | yes | 80 | 0 | 0 | 0 | 0 | 0 |  |
| O=C(OC[C@H]1O[C@@H](OC(=O)c2cc(O)c(O)c(OC(=O)c3cc(O)c(O)c(O)c3)c2)[C@H](OC(=O)c2cc(O)c(O)c(OC(=O)c3cc(O)c(O)c(O)c3)c2)[C@@H](OC(=O)c2cc(O)c(O)c(OC(=O)c3cc(O)c(O)c(O)c3)c2)[C@@H]1OC(=O)c1cc(O)c(O)c(OC(=O)c2cc(O)c(O)c(O)c2)c1)c1cc(O)c(O)c(OC(=O)c2cc(O)c(O)c(O)c2)c1 [TANNIC ACID] | 0 | 13 | 0 | 0 | 0 | 0 | 0 | 0 | yes | 0 | 0 | 13 | 0 | 8 | 0 |  |
| Cc1cn([C@H]2CC[C@@H](CO)O2)c(=O)[nH]c1=O | 1 | 0 | 0 | 0 | 0 | 0 | 0 | 0 | yes | 30 | 0 | 0 | 0 | 0 | 0 |  |
| CN(C)[C@@H]1C(O)=C(C(N)=O)C(=O)[C@@]2(O)C(O)=C3C(=O)c4c(O)ccc(Cl)c4[C@@](C)(O)[C@H]3C[C@@H]12 [CHLORTETRACYCLINE] | 0 | 4 | 0 | 0 | 0 | 3 | 0 | 0 | yes | 0 | 0 | 1 | 1 | 0 | 0 |  |
| N#CN [CYANAMIDE] | 0 | 2 | 11 | 2 | 0 | 0 | 0 | 0 | yes | 0 | 0 | 0 | 2 | 0 | 0 |  |
| C[C@]12CC[C@@H]3c4ccc(O)cc4CC[C@H]3[C@@H]1CC[C@@H]2O [ESTRADIOL] | 0 | 1 | 0 | 0 | 0 | 0 | 0 | 0 | yes | 0 | 0 | 0 | 1 | 0 | 0 |  |
